Reference: PMC11926788, “Effect of SSR504734, a Selective Glycine Transporter Type 1 Inhibitor, on Seizure Thresholds, Neurotransmitter Levels, and Inflammatory Markers in Mice” (ACS Chemical Neuroscience, 2025)
Where a name gives a salt, the structure may show the parent alone.

Assays:
[1] = test system: inflammatory markers in liver homogenates; assay: Inflammatory markers in liver (ELISA); type: in vivo, mice; settings: 14-day administration, 30 mg/kg i.p.
Method: Samples of liver tissue were homogenized with a protease inhibitor solution (0.4 M NaCl, 0.05% Tween 20, 0.5% bovine serum albumin, 0.1 mM phenylmethylsulfonylfluoride, 0.1 mM benzethonium chloride, 10 mM EDTA, and 10 μg/mL aprotinin). Homogenates were centrifuged at 12,000 rpm at 4 °C, and supernatant fluids were collected and stored at −80 °C until analysis. The entire procedure was described by Zhao et al.[29]
ELISA kits were used to determine IL-1-β, IL-6, IL-10, TNF-α, and IFN-γ (EIAAB Science INC, Wuhan, Hubei, China, nos. E0563m, E0079m, E0056m, E0049m, E0133m, E0753m) and IL-18 (Biorbyt Ltd., Cambridge, United Kingdom, no. orb437211) in the liver homogenates and serum. All assays were performed according to the producer’s instructions. All samples were tested in triplicate.

[2] = PAMPA (Gentest Precoated PAMPA Plate System); type: in vitro ADME; settings: ± SD
Method: A series of in vitro ADME-Tox tests were performed for SSR504734 in order to estimate its drugability. The ADME-Tox parameters including permeability, plasma protein binding, metabolic stability, neurotoxicity, and hepatotoxicity were carried out as described previously.[31],[32] The ability of SSR504734 to penetrate through the biological membrane by passive diffusion was estimated by the Gentest Precoated PAMPA Plate System (Corning, Tewksbury, MA) and expressed as the permeability coefficient (Pe). The protein binding analysis was performed by using the commercial TRANSIL^XL PPB test, which mimics in vitro physiological plasma conditions where human serum albumin (HAS) and alpha-1-acid glycoprotein AGP are present in a 24:1 ratio. The human metabolism of SSR504734 was studied using human liver microsomes (HLMs) provided by Sigma-Aldrich. The hepatotoxicity and neurotoxicity were estimated in cellular models with the use of hepatoma HepG2 and neuroblastoma SH-SY5Y cell lines to perform the preliminary safety tests. The cells were incubated with SSR504734 at the concentration range of 0.1–100 μM. 1 μM cytostatic drug doxorubicin (DX) was used as the reference.

SMILES: O=C(NC(c1ccccc1)C1CCCCN1)c1cccc(C(F)(F)F)c1Cl [SSR504734, 2-chloro-N-[(S)-phenyl[(2S)-piperidin-2-yl]methyl]-3-trifluoromethyl benzamide monohydrochloride]
- level of inflammatory markers in liver samples [1]: No statistically significant changes
- Papp ([2]; PAMPA, read-out: PAMPA Pe): 14.8 ± 1.49 ×10⁻⁶ cm/s
- PAMPA Pe [2]: 14.80 10^–6 cm/s
